Assay results: the METLIN SMRT retention time set (Domingo-Almenara et al. 2019)

Experiment: gradient 5% acetonitrile 3 min, to 50% in 2 min, to 85% in 15 min, held 3 min, 100 µL/min
Conditions: column: Zorbax Extend-C18 2.1 x 50 mm; eluents: water / acetonitrile, 0.1% formic acid
In short: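 In both positive and negative ionization mode, a quadrupole time-of-flight mass spectrometer coupled to HPLC analyzed pure standards run in mixtures of ~100 molecules. The Zorbax Extend-C18 column (2.1 × 50 mm, 1.8 μm) was operated at 100 μL/min with water and acetonitrile, each containing 0.1% formic acid. The dead volume was 40 μL and the dwell volume 900 μL. Retention time came from adduct peaks that were computationally picked and individually inspected by hand.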

Row | RP-LC retention time [s] | Compound
1 | 593 | Nc1nc(Cl)nc2c1ncn2[C@H]1C[C@H](O)[C@@H](CO)O1
2 | 725 | CCOc1cncc(C(=O)N2CCCCC2C)c1 (centres undefined)
3 | 593 | CCN1CCN(C(=O)C2CCCN(S(=O)(=O)c3ccc(OC)c(OC)c3)C2)CC1 (centres undefined)
4 | 746 | CCc1nc(OCC(=O)NCc2ccc(OC)cc2)c2ccccc2n1
5 | 893 | COCc1cc(=O)n(CC(=O)Nc2cc(C)cc(C)c2)c(N2CCOCC2)n1
6 | 852 | Cn1nc(CNC(=O)c2ccc(Cl)cc2)c2ccccc21
7 | 655 | CC(NC(=O)c1cc(F)cc(F)c1)C(=O)Nc1nc2ccccc2[nH]1 (centres undefined)
8 | 661 | CCN(CC)CCNC(=O)Cc1c(C)nc2c(-c3ccc(F)cc3)c(C)nn2c1C
9 | 1000 | Cc1cccc(N2CCN(Cc3nc(-c4ccc(N5CCSCC5)nc4)no3)CC2)c1
10 | 1080 | CCOC(=O)c1ccsc1NC(=O)c1cc(C)nn1CC
11 | 858 | CC1(C(=O)NCc2ccccc2)CN(S(C)(=O)=O)CC(=O)N1Cc1ccc(Cl)cc1 (centres undefined)
12 | 737 | COc1ccc(F)cc1-c1cc(NC(=O)[C@@H]2CCCNC2)ncc1Cl
13 | 894 | COc1ccc(-c2ncc3c(n2)CCN(C(=O)Nc2cccc(C)c2C)C3)cc1
14 | 672 | Cc1c(-c2ccnc(N3CCN(C)CC3)n2)cnc2nc(SCc3ccccc3)nn12
15 | 1000 | CCC(C)CC(=O)N1CCCN(C2=NS(=O)(=O)C(c3ccc(C(C)C)cc3)=C2C)CC1 (centres undefined)
16 | 804 | CCCCN(C)C(=O)c1ccc2c(c1)Sc1ncccc1C(=O)N2C(C)C
17 | 607 | CC(=O)N1CCc2cc(C(=O)N3CCOCC3)ccc21
18 | 744 | CCC(=O)N1CCc2cc(N3CC(C(=O)NCc4ccccc4Cl)CC3=O)ccc21 (centres undefined)
19 | 611 | Cc1nnc(-c2nnc(N3CCN(c4ccccn4)CC3)c3ccccc23)o1
20 | 590 | CSc1cccc(NC(=O)N2CCc3nc[nH]c3C2)c1
21 | 656 | CN1CCCN(C(=O)c2cn(-c3ccc(-c4nc(C(C)(C)C)no4)cn3)cn2)CC1
22 | 1120 | c1ccc(-c2nc3cc(-c4noc(-c5ccccn5)n4)ccc3o2)cc1

Row | RP-LC retention time [s] | Compound
23 | 565 | Cc1c(CN2CC3(CCCCC3)CC2COc2ccncc2)cnn1C (centres undefined)
24 | 858 | O=C(NCCc1c[nH]c2ccc(Cl)cc12)C1CCCN(c2nc3cccnc3s2)C1 (centres undefined)
25 | 718 | CC1CCCN(C(=O)CN(C)S(=O)(=O)c2ccc3c(c2)CCCC(=O)N3)C1 (centres undefined)
26 | 620 | Cc1nc2ccc(Cl)cn2c(=O)c1NC(=O)c1cccs1
27 | 987 | COc1ccccc1N1CCN(c2ccc3cc(S(=O)(=O)N4CCCCC4)ccc3n2)CC1
28 | 855 | NS(=O)(=O)c1cccnc1Nc1cccc(Cl)c1
29 | 971 | CCC1Oc2ccc(S(=O)(=O)N3CCC(C(=O)Nc4ccc(C)cc4Cl)CC3)cc2NC1=O (centres undefined)
30 | 858 | CCc1nnc(-c2ccc3ccn(CC(=O)N4CCN(c5ccccc5)CC4)c3c2)o1
31 | 920 | Cc1ccc(-c2noc(Cn3ccn(-c4cccc(Cl)c4)c(=O)c3=O)n2)cc1
32 | 575 | CCC(=O)Nc1ccc(S(=O)(=O)N2CCC(N3CCOCC3)CC2)cc1
33 | 877 | CC(C)CCNC(=O)c1nnc(-c2ccc(S(=O)(=O)N(C)C)cc2)o1
34 | 800 | COc1ccc(CCNC(=O)CN2C(=O)CCc3cc(Br)ccc32)cc1OC
35 | 797 | CCOCCCNC(=O)c1cc2n(n1)CCCN(Cc1ccc(Cl)cc1)C2=O
36 | 723 | C=CCNC(=O)C1CCCN(S(=O)(=O)c2cc(OC)ccc2OC)C1 (centres undefined)
37 | 784 | CCc1noc(-c2cnc3nc(C)ccc3c2NCc2ccccc2C)n1
38 | 614 | CCN1CCN(C(=O)CS(=O)Cc2cnn(-c3ccccc3)c2-n2cccc2)CC1 (centres undefined)
39 | 1030 | Cc1nn(-c2nc3ccccc3[nH]2)c2c1C(=O)CC(/C=C/c1ccccc1)C2 (centres undefined)
40 | 607 | Cn1c(CN2CCN(C(=O)Nc3ccc4c(c3)OCO4)CC2)nc2cc(C(=O)N3CCCC3)ccc21
41 | 1160 | COc1ccc(NC(=O)Cc2c(C)nn(-c3nc(-c4ccccc4)cs3)c2C)c(OC)c1
42 | 585 | CCc1nc2c(=O)n(CC(=O)N3CCN(c4ccccn4)CC3)nc(C)c2s1
43 | 552 | Cn1c(=O)n(C2CCN(Cc3ccsc3)CC2)c2ncncc21
44 | 767 | Cc1ccc(CN2C(=O)NC3(CCN(C(=O)c4ccc[nH]4)CC3)C2=O)cc1

Row | RP-LC retention time [s] | Compound
45 | 973 | COc1cccc(-c2noc(Cc3nnc(-c4ccc(Cl)cc4)o3)n2)c1OC
46 | 1160 | COc1cc(C2CC(=O)c3c([nH]c(C(=O)OC4CCCCCC4)c3C)C2)cc(OC)c1OC (centres undefined)
47 | 857 | Cc1cc(C2CCCN2C(=O)Nc2ccc(C)c(C)c2)no1 (centres undefined)
48 | 658 | O=C(Nc1cnc(N2CCCC2)nc1)c1ccsc1
49 | 665 | Cc1cc(=O)n(CC(=O)NC(C)C)c(N2CCc3ccccc3C2)n1
50 | 1100 | COc1ccc(CCC(=O)Nc2nc(-c3ccc(F)cc3F)cs2)cc1
51 | 710 | Cc1c(-c2noc(C(=O)NCCN3CCCCCC3)n2)oc2ccccc12
52 | 664 | CS(=O)(=O)N(C1CCOCC1)C1CN(C(=O)Nc2ccc(F)cc2F)C1
53 | 867 | COc1ccc(OC)c(S(=O)(=O)N2CCCC(C(=O)NC3CCCCC3)C2)c1 (centres undefined)
54 | 758 | Cc1nn(CC(=O)NCCc2ccco2)c(=O)c2nn(-c3ccccc3)c(C)c12
55 | 963 | COC(=O)c1cc(S(=O)(=O)N2CCCC2C(=O)Nc2cccc(Br)c2)cn1C (centres undefined)
56 | 635 | CCn1c(N2CCCC(C(=O)NCC3CCN(Cc4cccc(F)c4)CC3)C2)cc(=O)n(C)c1=O (centres undefined)
57 | 966 | CCn1c(C(=O)N2CCCC(C(=O)N3CCc4ccccc4C3)C2)cc2sccc21 (centres undefined)
58 | 602 | CCCNC(=O)N1CCC2(CCCCO2)CC1
59 | 911 | Cc1nc(N2CCOCC2)c2c(C(=O)Nc3ccccc3Cl)c(C)oc2n1
60 | 521 | O=C(NCCn1nc(-n2ccnc2)ccc1=O)c1cccc(-n2cnnn2)c1
61 | 1040 | CCCCc1ccc(NC(=O)Cn2nc3cc(C)nc(-c4ccc(OC)cc4)n3c2=O)cc1
62 | 1060 | O=S(=O)(c1ccc(-c2nnc(C3CCCC3)o2)o1)N1CCCCCC1
63 | 1090 | CSc1ccc(CCNC(=O)c2nnc(-c3ccc(S(=O)(=O)N4CCCCC4)cc3)o2)cc1
64 | 1240 | CCOc1ccc(-c2nc(-c3ccc4c(c3)N(CC)C(=O)CO4)no2)cc1
65 | 808 | Cc1cc(C)cc(NS(=O)(=O)c2cc3n(c2)CCN(C(C)C)C3=O)c1
66 | 885 | CC(C)NC(=O)c1cc2nc(N(C)C)n(-c3ccccc3)c2s1

Row | RP-LC retention time [s] | Compound
67 | 796 | O=C(Cn1nc2c3cc(-c4ccc(F)cc4)nn3ccn2c1=O)NCc1ccco1
68 | 740 | Cc1oc(-c2[nH]ncc2C(=O)N(C)C)cc1S(=O)(=O)Nc1ccc(F)c(Cl)c1
69 | 643 | CC(NC(=O)c1cccc2c1CCN2C(=O)Nc1ccccc1)c1cccnc1 (centres undefined)
70 | 898 | COc1ccc(NC(=O)C(C)C2CCN(C(=O)Nc3ccc(Cl)cc3)CC2)c(OC)c1 (centres undefined)
71 | 752 | CCC(=O)Nc1nc(-c2ccc3c(c2)N(C)C(=O)CO3)cs1
72 | 866 | C#CCOCC1CCN(S(=O)(=O)c2ccccc2)CC1
73 | 630 | CCNC(=O)N1CCCC(c2nn(C)c(=O)n2C2CCCC2)C1 (centres undefined)
74 | 726 | Cc1ccc(Cn2cccc2C(=O)C(=O)N2CCN(c3ccccn3)CC2)cc1C
75 | 557 | CCCOc1ccc(CN2C[C@@H](CO)[C@H](c3ccncc3)C2)cc1OC
76 | 845 | COC(=O)c1ccc(Cl)cc1NC(=O)NCCc1cn(C)c2ncccc12
77 | 769 | CCC(C)C(NC(=O)c1cc(OC)cc(OC)c1)C(=O)Nc1nc2ccccc2[nH]1 (centres undefined)
78 | 821 | O=C(Cc1csc(-n2cccc2)n1)NCc1nc(-c2ccccc2)no1
79 | 596 | Cc1ccc2c(Nc3ccc(F)cc3F)c(C(=O)N3CCCC3)cnc2n1
80 | 1300 | COc1ccc2c(c1)-c1nc(NC(=O)c3cc(Cl)ccc3OC)sc1CC2
81 | 1040 | CC(C)OC(=O)Cn1nc2c(-c3nc(-c4ccc(Cl)cc4)no3)cccn2c1=O
82 | 1150 | CCn1ncc(NC(=O)COc2ccccc2C)c(N2CCCCC2)c1=O
83 | 927 | COc1cccc(NC(=O)c2sc(-c3cn(C)c4ncccc34)nc2C)c1
84 | 665 | COc1cccc(NC(=O)Nc2c(-c3ccccc3)nc3ccccn23)c1
85 | 876 | COc1ccc(NC(=O)N2CCCC2c2nc(-c3ccccc3)no2)cc1 (centres undefined)
86 | 1030 | CCn1c(=O)c2cc(C(=O)Nc3ccc(OC)cc3OC)nn2c2ccccc21

Row | Compound | RP-LC retention time [s]
87 | COc1ccc(C(=O)N2CCC3(C2)C(=O)N(C)c2ccc(OC)cc23)c(OC)c1 (centres undefined) | 760
88 | Cc1ncc2c(n1)C[C@@H]1CC[C@H]2N1C(=O)COc1ccc(F)cc1 | 675
89 | O=C(Nc1ccc(Cl)cc1)c1c(O)c2cccnc2n(Cc2ccccc2)c1=O | 1290
